The conditions of data set [1]: aqueous solution of ferrous sulfate with 100 ppm iron ions.
From the text: (§1) In which, “in vitro digestion and dialysis” is used in the experiments for determining the releasable iron in human body after the foods are digested.
Firstly, iron(II) sulfate heptahydrate is used as a standard in the experiment, and the in vitro digestion and dialysis of the iron(II) sulfate heptahydrate is done.
The nature of data set [2]: second experiment: releasable iron in soymilk with iron salts added by concentration gradients.
From the text: as §1
For data set [3] the following is noted: soymilk with 20 ppm iron as ferrous sulfate.
From the text: as §1
Next, in the second experiment, it respectively adds different additive dosage of vitamin C, sodium vitamin C, potassium vitamin C, and calcium vitamin C into the soymilk with 20 ppm ferrous sulfate for testing the effect of encouraging the release of iron ions.
The nature of data set [4]: NaVC consumption on ultra heat treat of the formulated soymilk powder. Type of data set: physicochemical. From the text:
As shown in Table (26), the formulated soymilk powder consists of NaVC (sodium vitamin C), lactic acid bacteria, saccharomycete, and maltodextrin, in which the lactic acid bacteria is NTU 101 lactic acid bacteria powder, the saccharomycete is yeast powder with vitamin B complex. Moreover, it must note that, when manufacturing the formulated soymilk powder, it must pre-add 25% NaVC in the formulated soymilk powder because there has 25% NaVC consumption when processing ultra heat treat of the formulated soymilk powder.

For data set [5] the following is noted: background, researches; cited from earlier work.

This is an account of results in US20130089641A1.

Regarding `O.O.O.O.O.O.O.O=S(=O)([O-])[O-].[Fe+2]` [ferrous sulfate, iron(II) sulfate heptahydrate], the “iron ions naturally inhibited” value in data set [1] is 49.61%. Moreover, the “iron ions released after processing by gastric and intestinal fluid” value in data set [1] is listed as 50.39%. Moreover, the “concentration of releasable iron” value in data set [2] (additive dosage of iron 10 ppm) was 1.56 ppm; in data set [2] (additive dosage of iron 20 ppm), 1.76 ppm; in data set [2] (additive dosage of iron 30 ppm), 2.47 ppm; in data set [2] (additive dosage of iron 40 ppm) it was 2.62 ppm; in data set [2] (additive dosage of iron 50 ppm), 2.75 ppm; in data set [2] (additive dosage of iron 60 ppm) it was 3.27 ppm. Also, the “concentration of releasable iron” value in data set [2] (additive dosage of iron 70 ppm) turned out to be 3.72 ppm. The initially inhibiting concentration in data set [2] (point where releasable iron starts to rise with additive dosage) turned out to be 20 ppm. Further, the “releasable iron concentration before adding the ascorbic acid iron” value in data set [3] is 1.90 ppm. For the same molecule, the “the most effective additive dosage for ascorbic acid iron” value in data set [3] turned out to be 100 mg/100 ml. Further, the “release promoting rate of iron” value in data set [3] (after/before adding the ascorbic acid iron) stood at 389%. The “releasable iron concentration after adding the ascorbic acid iron” value in data set [3] (at the most effective additive dosage 100) worked out at 7.54 ppm.
Take `O=C1O[C@H]([C@@H](O)CO)C([O-])=C1O.[Na+]` [NaVC, sodium ascorbate]: in data set [4], the “NaVC consumption when processing ultra heat treat” value turned out to be 25%.
Consider heme iron, for which, in data set [5], the average absorption rate was 25%.
